In experiment [1] the target is wild-type (WT) truncated human STING protein, amino acids 155-379 (Homo sapiens (Human), UniProt Q86WV6, H232R). Kind of experiment: Human WT STING [3H] 2′,3′-cGAMP scintillation proximity competition binding assay. The text has this: (§1) A human STING [^3H] 2′,3′-cGAMP scintillation proximity competition binding assay was utilized to detect binding of compounds to STING protein. […] The protein encoding plasmid contained a HIS tag, followed by an Avi tag and then a SUMO tag, which were followed by the STING coding sequence within the pET-28a (+) vector. The plasmid was transfected into a BL21 (DE3)/BirA E. coli co-expression strain. Protein was purified from the bacterial lysate using a cobalt-affinity column. The purified protein was dialyzed against PBS and then 20% glycerol was added prior to storage at −80° C.
wild-type (WT) truncated human STING protein, amino acids 155-379, sequence (Q86WV6 155-379 H232R): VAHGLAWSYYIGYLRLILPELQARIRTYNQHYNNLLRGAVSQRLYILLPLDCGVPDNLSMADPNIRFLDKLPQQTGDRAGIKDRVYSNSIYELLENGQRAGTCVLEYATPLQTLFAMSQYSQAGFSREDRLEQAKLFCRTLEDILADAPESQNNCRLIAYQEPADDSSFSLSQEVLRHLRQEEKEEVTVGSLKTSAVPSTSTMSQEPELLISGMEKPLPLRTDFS
(§2) 2′,3′-cGAMP in assay buffer (50 mM Tris pH 7.5, 100 mM NaCl, 0.1% Fatty Acid Free BSA). Test compounds (2.5 μL) were added to the plate first followed by a 25 μL mixture of STING protein, streptavidin PVT SPA beads (Perkin Elmer) and 10 μL [^3H] 2′,3′-cGAMP. Plates were incubated at room temperature for 18 hrs and read on a Wallac MicroBeta TriLux (Perkin Elmer).

For experiment [2], the target named is AQ variant of truncated human STING protein, amino acids 155-379 (Homo sapiens (Human), UniProt Q86WV6, G230A/H232R/R293Q). Kind of experiment: Human AQ STING [3H] 2′,3′-cGAMP scintillation proximity competition binding assay.
AQ variant of truncated human STING protein, amino acids 155-379, sequence (Q86WV6 155-379 G230A/H232R/R293Q): as the sequence (Q86WV6 155-379 H232R) above, with G76A, R139Q counted along it
Source text: as §1, §2

The target of experiment [3] is murine STING protein (amino acids 154-378) (Mus musculus (Mouse), UniProt Q3TBT3). Put plainly: Murine STING [3H] 2′,3′-cGAMP scintillation proximity competition binding assay. (Scintillation proximity formats need no separation of bound from free tracer.)
murine STING protein (amino acids 154-378), sequence (Q3TBT3 154-378): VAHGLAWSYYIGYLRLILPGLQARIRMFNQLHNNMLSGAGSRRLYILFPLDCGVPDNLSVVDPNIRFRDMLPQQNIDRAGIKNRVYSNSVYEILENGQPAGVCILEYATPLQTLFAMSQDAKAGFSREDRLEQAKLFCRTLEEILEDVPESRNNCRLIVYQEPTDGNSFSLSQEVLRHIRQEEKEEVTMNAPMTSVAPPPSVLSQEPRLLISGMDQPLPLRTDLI
The test system of experiment [4] is STING pathway, THP1 cells. Put plainly: Human IFN-α/β induction assay (THP1 supernatants on HEK-Blue IFN-α/β reporter cells). The class given is cell-based. To be noted: THP1 cells 5 hrs, HEK-Blue reporter cells 24 hrs.
Procedure: Genetically engineered human type-1 Interferons (IFN-α/β) sensor cells-HEK Blue™ IFNα/β cells (Invivogen) were employed to measure the type-1 IFNs produced by THP1 cells that are treated with activators of STING. The human embryonic (HEK) Blue™ cells are specially designed to monitor the activation of JAK/STAT pathway induced by type 1 IFNs. Briefly, THP1 cells are treated with compounds for 5 hrs. In the second step, supernatants of THP1 cells are transferred to HEK Blue™ IFNα/β reporter cells and incubated for 24 hrs. The secreted embryonic alkaline phosphatase (SEAP) activity in the supernatants of HEK blue IFNα/3 reporter cells is measured and used to determine the quantities of IFNs.
HEK-Blue IFN-α/β reporter cells (Invivogen) were used to measure the secretion of IFN-α/β into culture supernatants of THP1 cells following STING pathway activation. In the first step, THP1 cells were cultured in presence of STING activators for 5 hrs at 37° C., in a 5% CO2 tissue culture incubator, which facilitates the release of IFN-α/β into the supernatants. In the second step, cell supernatants from THP1 cells were transferred to HEK-Blue IFN-α/β reporter cells and incubated at 37° C., in a 5% CO2 incubator for 24 hrs. HEK-Blue IFN-α/β reporter cells are specifically designed to monitor the activation of JAK-STAT pathway activation by type 1 IFNs. These cells express a secreted embryonic alkaline phosphatase (SEAP) reporter gene under the control of ISG54 promoter, which is a well-known interferon stimulatory gene activated by type 1 IFNs. Upon IFN-α/β stimulation, HEK-Blue IFN-α/β reporter cells activate the JAK-STAT pathway and subsequently the expression of the reporter gene. SEAP which is secreted in the supernatant is easily detectable using alkaline phosphatase detection medium (Quanti-Blue reagent from Invivogen).
These assays were run by adding 2 μL of compound stock solution to tissue culture treated 384-well plates with electronic pipettes. Compounds were diluted in autoclaved sterile water, initially spotted on the intermediate dilution plate and then to the assay plate. […]
Experiment [5] relates to STING signaling, RAW-Dual reporter cells. Kind of experiment: Measurement of mouse IFN-β (ELISA). Format: cell-based. In general terms: An ELISA detects its analyte on a solid surface through an enzyme-linked reagent.
Source text: Mouse Interferon-β (IFN-β) in the supernatants of murine macrophages treated with STING activators was quantified using sandwich enzyme linked immunosorbent assay (ELISA). Briefly, IFN-β binds to plates coated with antibody and detection is accomplished using a detection antibody followed by streptavidin conjugated to horseradish peroxidase. Tetramethyl-benzidine is used as the substrate in this kit (PBL Assay Science). […] In this invention, mouse IFN-β ELISA is used to determine the potency of compound on STING pathway activation in mouse macrophages.
Murine macrophage derived cell line RAW-Dual reporter cells (Invivogen) were used to measure the IFN-β produced by STING signaling activation. Briefly, 20,000 cells in 27 μL were seeded into tissue culture treated 384-well plate that contained 3 μL of test compound. Cells were incubated at 37° C., in a 5% CO2 incubator for 5.5 hours. Supernatants from treated cells were diluted 20-fold and prior to measurement of IFN-β levels using ELISA kit (PBL Assay Science). 100 μL of diluted sample was added to ELISA plate. Plates were incubated at RT for 1 hour with shaking at 650 rpm. Post incubation, samples were aspirated from wells and the wells were washed 4 times. Diluted antibody (50 μL) was added to plates and incubated at RT for 30 minutes with shaking, followed by aspiration of antibody and 4× washes. Diluted HRP (horseradish peroxidase) solution (50 μL) was added and incubated for 10 minutes, followed by aspiration of the solution and 4× wash steps. After the final wash steps, plates were incubated with 100 μL of TMB (tetramethyl benzidine) substrate for 10 minutes, followed by addition of 100 μL of stop solution and plates were read on Envision plate reader for optical density.
For experiment [6], the system named is CT-26 tumor. Kind of experiment: CT-26 tumor bearing mice, intra-tumoral treatment and re-challenge. To be noted: 50 μg intra-tumoral Days 0, 3, 7.
Setting [7] is: read-out: Human WT Binding IC50.
[8] abbreviates: read-out: Human AQ Binding IC50.

Read-outs that look alike come from different tables or passages of the source.

Usually IC50 stands for the concentration that gives 50% inhibition. On to `Nc1nc2c(ncn2[C@@H]2O[C@@H]3COP(=O)(S)OCCn4c(nc5c(N)ncnc54)COP(=O)(S)O[C@@H]2[C@@H]3F)c(=O)[nH]1` (single isomer, unassigned) [Example 7A], for which the results for the concentration for half-maximal inhibition (IC50) in experiment [1] (setting [7]), in experiment [2] (setting [8]) and in experiment [3] (read-out: Murine Binding IC50) were 10 to 100 µM, 1 to 9.99 µM and under 1 µM, respectively.
For `Nc1nc2ncn([C@@H]3O[C@@H]4COP(=O)(S)OCCn5c(nc6cc(Cl)cnc65)COP(=O)(S)O[C@@H]3[C@@H]4F)c2c(=O)[nH]1` (single isomer, unassigned) [Example 13B] the same measures were 10 to 100 µM, 10 to 100 µM and 1 to 9.99 µM.
On to `Nc1nc2c(ncn2[C@@H]2O[C@@H]3COP(=O)(O)O[C@@H]4[C@H](O)[C@@H](COP(=O)(O)O[C@@H]2[C@@H]3O)O[C@H]4n2cnc3c(N)ncnc32)c(=O)[nH]1` [2′,2′-cGAMP, reference compound], for which the IC50 in experiment [1] (reference compound, read-out: IC50 using the WT STING protein) turned out to be 0.562 µM; in experiment [2] (reference compound, unit printed as 'M' (sic), read-out: IC50 using the AQ STING protein), 0.098 µM; in experiment [3] (reference compound, read-out: IC50, murine STING binding), 0.055 µM.
For `COCc1ncc2nc3n(c2n1)CCOP(=O)(S)OC[C@H]1O[C@@H](n2cnc4c(=O)[nH]c(N)nc42)[C@H](OP(=O)(S)OC3)[C@@H]1F` (stereo partly drawn) [Example 40C, (1S,21R,23R,24R)-23-(2-Amino-6-oxo-6,9-dihydro-H-purin-9-yl)-24-fluoro-11-(methoxymethyl)-3,18-disulfanyl-2,4,17,19,22-pentaoxa-7,10,12,14-tetraaza-3lambda5,18lambda5-diphosphatetracyclo[19.2.1.06,14.08,13]tetracosa-6,8,10,12-tetraene-3,18-dione], the results for the IC50 in experiment [1] (setting [7]), in experiment [2] (setting [8]) and in experiment [3] (read-out: Murine Binding IC50) were 10 to 100 µM, 1 to 9.99 µM and under 1 µM, respectively.
As for `Nc1nc2c(ncn2[C@@H]2O[C@@H]3COP(=O)(S)OCCn4c(nc5cncnc54)COP(=O)(S)O[C@@H]2C3(F)F)c(=O)[nH]1` (stereo partly drawn) [Example 36D, (1S,21R,23R)-23-(2-Amino-6-oxo-6,9-dihydro-1H-purin-9-yl)-24,24-difluoro-3,18-disulfanyl-2,4,17,19,22-pentaoxa-7,10,12,14-tetraaza-3lambda5,18lambda5-diphosphatetracyclo[19.2.1.06,14.08,13]tetracosa-6,8,10,12-tetraene-3,18-dione], the IC50 in experiment [1] (setting [7]) was 10 to 100 µM; in experiment [2] (setting [8]), 1 to 9.99 µM; in experiment [3] (read-out: Murine Binding IC50), under 1 µM.
As to `Nc1nc2c(ncn2[C@@H]2O[C@@H]3COP(=O)(S)OCCn4c(nc5c(N)ncnc54)COP(=O)(S)O[C@@H]2[C@@H]3F)c(=O)[nH]1` (single isomer, unassigned) [Example 7B], the IC50 in experiment [1] (setting [7]) is 10 to 100 µM; in experiment [2] (setting [8]) it was 1 to 9.99 µM; in experiment [3] (read-out: Murine Binding IC50), under 1 µM.
As to `Nc1nc2c(ncn2[C@@H]2O[C@@H]3COP(=O)(S)OCCn4c(nc5c(N)ncnc54)COP(=O)(S)O[C@@H]2[C@@H]3F)c(=O)[nH]1` (single isomer, unassigned) [Example 7C], the half-maximal inhibitory concentration (IC50) in experiment [1] (setting [7]), in experiment [2] (setting [8]) and in experiment [3] (read-out: Murine Binding IC50) was under 1 µM each time.
As for `Nc1nc2c(ncn2[C@@H]2O[C@@H]3COP(=O)(O)OCCn4c(nc5cncnc54)COP(=O)(O)O[C@@H]2[C@@H]3O)c(=O)[nH]1` [Example 10, (1R,21R,23R,24R)-23-(2-Amino-6-oxo-6,9-dihydro-1H-purin-9-yl)-3,18,24-trihydroxy-2,4,17,19,22-pentaoxa-7,10,12,14-tetraaza-3lambda5,18lambda5-diphosphatetracyclo[19.2.1.06,14.08,13]tetracosa-6,8,10,12-tetraene-3,18-dione], the IC50 was 10 to 100 µM in experiment [1] (setting [7]), 1 to 9.99 µM in experiment [2] (setting [8]) and under 1 µM in experiment [3] (read-out: Murine Binding IC50).
For `CO[C@H]1[C@H]2OP(=O)(S)OCc3nc4cncnc4n3CCOP(=O)(S)OC[C@H]1O[C@H]2n1cnc2c(=O)[nH]c(N)nc21` (single isomer, unassigned) [Example 27D] the same measures were 1 to 9.99 µM, under 1 µM and under 1 µM.
On to `Nc1ncnc2c1ncn2[C@@H]1O[C@@H]2COP(=O)(S)OCCn3c(nc4cncnc43)COP(=O)(S)O[C@@H]1[C@@H]2O` (stereo partly drawn) [Example 8, (1R,21R,23R,24R)-23-(6-Amino-9H-purin-9-yl)-24-hydroxy-3,18-disulfanyl-2,4,17,19,22-pentaoxa-7,10,12,14-tetraaza-3lambda5,18lambda5-diphosphatetracyclo[19.2.1.06,14.08,13]tetracosa-6,8(13),9,11-tetraene-3,18-dione], for which the figures for the IC50 in experiment [1] (setting [7]), in experiment [2] (setting [8]) and in experiment [3] (read-out: Murine Binding IC50) were 10 to 100 µM, 10 to 100 µM and 1 to 9.99 µM, respectively.
On to `Nc1nc2c(ncn2[C@@H]2O[C@@H]3COP(=O)(S)OCCCn4c(nc5cncnc54)COP(=O)(S)O[C@@H]2[C@@H]3O)c(=O)[nH]1` (stereo partly drawn) [Example 9, (1R,22R,24R,25R)-24-(2-Amino-6-oxo-6,9-dihydro-1H-purin-9-yl)-25-hydroxy-3,19-disulfanyl-2,4,18,20,23-pentaoxa-7,10,12,14-tetraaza-3lambda5,19lambda5-diphosphatetracyclo[20.2.1.06,14.08,13]pentacosa-6,8,10,12-tetraene-3,19-dione], for which the IC50 lay in the range of 10 to 100 µM in experiment [1] (setting [7]), 1 to 9.99 µM in experiment [2] (setting [8]) and 1 to 9.99 µM in experiment [3] (read-out: Murine Binding IC50).
In the case of `Nc1nc2c(ncn2[C@@H]2O[C@@H]3COP(=O)(O)OCCCn4c(nc5cncnc54)COP(=O)(O)O[C@@H]2[C@@H]3O)c(=O)[nH]1` [Example 2, (1R,22R,24R,25R)-24-(2-Amino-6-oxo-6,9-dihydro-1H-purin-9-yl)-3,19,25-trihydroxy-2,4,18,20,23-pentaoxa-710,122,14-tetraaza-3lambda5,19lambda5-diphosphatetracyclo[20.2.1.06,14.08,13]pentacosa-6,8(13),9,11-tetraene-3,19-dione], the IC50 in experiment [1] (setting [7]) and in experiment [2] (setting [8]) was 10 to 100 µM each time.
Broadly, the EC50 is the midpoint of the concentration-response curve. The low end stands for an effect from little substance, the high end for a need for much substance. With `Nc1ncnc2c1ncn2[C@@H]1O[C@@H]2COP(=O)([S-])O[C@@H]3[C@H](O)[C@@H](COP([O-])(=S)O[C@H]2[C@H]1O)O[C@H]3n1cnc2c(N)ncnc21.[Na+].[Na+]` (some centres unmarked) [ADU-S100, reference compound], the EC50 in experiment [4] was over 10 µM; in experiment [5], over 5 µM. Besides, the “Number of surviving mice” value in experiment [6] (Day 0), in experiment [6] (Day 3), in experiment [6] (Day 7), in experiment [6] (Day 10), in experiment [6] (Day 14) and in experiment [6] (Day 17) was 10/10 in each case. Moreover, the entries for the “Number of surviving mice” value in experiment [6] (Day 20), in experiment [6] (Day 23) and in experiment [6] (Day 35) were 10/10, 7/10 and 1/10, respectively. Also, the “animals with complete regression of the tumors” value in experiment [6] (by Day 30) is “None”.
In the case of `CO[C@H]1[C@H]2OP(=O)(S)OCc3nc4cncnc4n3CCOP(=O)(S)OC[C@H]1O[C@H]2n1cnc2c(=O)[nH]c(N)nc21` (single isomer, unassigned) [Example 27C], the IC50 in experiment [1] (setting [7]), in experiment [2] (setting [8]) and in experiment [3] (read-out: Murine Binding IC50) was under 1 µM each time.
For `Nc1nc2c(ncn2[C@@H]2O[C@@H]3COP(=O)(S)OCCn4c(nc5c(N)ncnc54)COP(=O)(S)O[C@@H]2[C@@H]3F)c(=O)[nH]1` (single isomer, unassigned) [Example 7D], the figures for the IC50 in experiment [1] (setting [7]), in experiment [2] (setting [8]) and in experiment [3] (read-out: Murine Binding IC50) were 1 to 9.99 µM, under 1 µM and under 1 µM, respectively.
On to `CO[C@H]1[C@H]2OP(=O)(S)OCc3nc4cncnc4n3CCOP(=O)(S)OC[C@H]1O[C@H]2n1cnc2c(=O)[nH]c(N)nc21` (single isomer, unassigned) [Example 27B], for which the values for the IC50 in experiment [1] (setting [7]), in experiment [2] (setting [8]) and in experiment [3] (read-out: Murine Binding IC50) were 10 to 100 µM, 1 to 9.99 µM and under 1 µM, respectively.
For the compound `Nc1nc2c(ncn2[C@@H]2O[C@@H]3COP(=O)(S)OCCn4c(nc5cncnc54)COP(=O)(S)O[C@@H]2[C@@H]3F)c(=O)[nH]1` (single isomer, unassigned) [Example 1D], the IC50 in experiment [2] (setting [8]) was under 1 µM. The EC50 is under 5 µM in experiment [4] (Homo sapiens, THP-1) and over 5 µM in experiment [5].
For `Nc1nc2c(ncn2[C@@H]2O[C@@H]3COP(=O)(O)OCCn4c(nc5cncnc54)COP(=O)(O)O[C@@H]2[C@@H]3F)c(=O)[nH]1` [Example 4, (1S,21R,23R,24R)-23-(2-Amino-6-oxo-6,9-dihydro-1H-purin-9-yl)-24-fluoro-3,18-dihydroxy-2,4,17,19,22-pentaoxa-7,10,12,14-tetraaza-3lambda5,18lambda5-diphosphatetracyclo[19.2.1.06,14.08,13]tetracosa-6,8(13),9,11-tetraene-3,18-dione], the IC50 was 10 to 100 µM in experiment [1] (setting [7]), 1 to 9.99 µM in experiment [2] (setting [8]) and under 1 µM in experiment [3] (read-out: Murine Binding IC50).

For the origin of these results see patent US11161864B2, “Sting agonists” (Venenum Biodesign, LLC, priority 2018, dated 2021).
